Earlier results, collected in patent US20060270610A1, “Novel compounds for hypoxic cell therapy and imaging” (priority 2005, published 2006).
Like-named read-outs stand apart in the source and are kept apart here.

Columns and labels:
[1] = target: T1, NBMPR (nitrobenzylthioinosine)-sensitive equilibrative nucleoside transporter (Homo sapiens, UniProt Q99808); details: in vitro, erythrocytes
T1 construct: equilibrative nucleoside transporter in erythrocytes; endogenous in cells
T1 sequence (Q99808 1-456): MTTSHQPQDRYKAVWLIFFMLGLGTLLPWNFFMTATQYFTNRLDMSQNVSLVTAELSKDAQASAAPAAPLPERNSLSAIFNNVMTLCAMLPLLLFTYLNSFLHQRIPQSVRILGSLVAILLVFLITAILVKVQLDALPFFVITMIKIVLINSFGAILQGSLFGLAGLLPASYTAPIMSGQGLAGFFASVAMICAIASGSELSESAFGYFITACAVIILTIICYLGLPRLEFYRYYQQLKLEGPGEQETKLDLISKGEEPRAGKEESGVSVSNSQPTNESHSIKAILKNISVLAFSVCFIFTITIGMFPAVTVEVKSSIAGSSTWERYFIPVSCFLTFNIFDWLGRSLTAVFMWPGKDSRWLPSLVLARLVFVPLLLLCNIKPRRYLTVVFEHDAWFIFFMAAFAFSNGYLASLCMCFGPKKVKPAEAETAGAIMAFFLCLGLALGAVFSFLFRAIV

[2] = rats, via the renal system; compared with [18F]FMISO
murine tumor models = details: three different murine tumor models; greater than [18F]FMISO

O=[N+]([O-])c1nccn1[C@H]1O[C@H](CI)[C@@H](O)[C@@H]1O [IAZA, 1-α-D-(5-dexoy-5-iodorabinofuranosyl)-2-nitroimidazole]
transport by NBMPR-sensitive equilibrative nucleoside transporter [1]: not transported

O=[N+]([O-])c1nccn1[C@H]1O[C@H](C[18F])[C@@H](O)[C@@H]1O [[^18F] 1-α-D-FAZA]
clearance from blood, viscera and muscle tissue [2]: faster clearance
uptake in normal brain tissue (patients studied sequentially): absence of [^18F] 1-α-D-FAZA uptake
tumor:blood ratios relative to [18F]FMISO (murine tumor models): 2-4 times

OC[C@H]1OC(O)[C@H]([18F])[C@@H](O)[C@@H]1O (stereo partly drawn) [[^18F]FDG]
uptake in normal brain tissue (human, in vivo): taken up as a reflection of glucose metabolism in healthy brain

O=[N+]([O-])c1nccn1CC(O)C[18F] (stereo not drawn) [[^18F]FMISO]
uptake in normal brain tissue (human, in vivo): taken up non-specifically by brain
